# Results as given in paper PMC9641905, “Synthesis, biological evaluation and molecular docking of new triphenylamine-linked pyridine, thiazole and pyrazole analogues as anticancer agents” (BMC Chemistry, 2022).
# What was measured:
# A-549 cell line = assay: MTT cytotoxicity assay, A-549 lung cancer cell line; assay type: cell-based, human; conditions: lung cancer cells
# Experimental: (§1) The lung cancer A-549 and the breast cancer MDA-MB-231 cell lines were obtained from the viscera Tissue Culture Unit. The cells were spread in Dulbecco’s modified Eagle’s medium (DMEM) supplemented with 10% heat-inactivated fetal bovine serum, 1% L-glutamine, HEPES buffer, and 50 µg/mL gentamycin. All cells were maintained at 37 °C in a humidified atmosphere with 5% CO2 and were sub-cultured two times a week.
# (§2) The MTT assay was applied to determine the cytotoxicity of pyridine and thiazole derivatives. MTT or 3-(4,5-dimethylthiazol-2-yl)-2,5-diphenyltetrazolium bromide was purchased from Serva, Germany. The cell lines were introduced into 96-well plates at a cell concentration of 1 × 10^4 cells per well in 100 μL of complete medium (tests were done in duplicates). These plates were incubated for 24 h, 5% CO2, at 37 °C for settle down and adhesion. Control cells were incubated without the test sample and with or without DMSO. After incubation, different concentrations of samples were added after the period of incubation (48 h), media were inhaled, and the MTT solution was added to all wells for full 30 min. Briefly, the media was extracted from the 96 well plates and exchanged with 100 µl of fresh culture RPMI 1640 medium without phenol red then 10 µl of the 12 mM MTT stock solution (5 mg of MTT in 1 mL of PBS) to all wells inclusive the untreated controls. The 96 well plates were incubated at 37 °C and 5% CO2 for 4 h. An 85 µl aliquot of the media was taken away from the wells, added 50 µl of DMSO to all wells and mixed thoroughly, and incubated at 37 °C for 10 min. The absorbance of plates was measured after shaking on a microplate reader (TECAN, Inc.), using a test wavelength of 590 nm. Measure the optical density by the microplate reader to calculate the number of viable cells and the percentage of viability according to [(ODt/ODc)] × 100% where ODt (optical density of cells treated) with the tested sample and ODc (optical density of control cells).
# (§3) In the vitro cytotoxic activity of triphenylamine-based pyridine, thiazole, pyrazole and/or isoxazole derivatives was estimated against two cell lines as lung cancer (A-549) and mammary gland breast cancer cell line (MDA-MB-231) by using MTT assay according to reported method. Cisplatin is one of the common alkylation agents was selected to be the reference drug. From graphic plots of the dose response curve determine the 50% inhibitory concentration (IC50) (Fig. 2).
# MDA-MB-231 cell line = assay: MTT cytotoxicity assay, MDA-MB-231 breast cancer cell line; assay type: cell-based, human; conditions: breast cancer cells
# Experimental: as §1, §2, §3
# [1] = MTT cytotoxicity assay against normal cells (MRC-5); assay type: cell-based; conditions: MRC-5 cells (normal lung fibroblasts), normal human lung fibroblasts, read-out: CC50 MRC-5 cell line
# Experimental: as §2
# (§4) The MTT assay was applied to determine the cytotoxicity of pyridine and thiazole derivatives against normal cell line to explore the selectivity of the tested compounds against tumor cells. The cytotoxicity was tested against human lung fibroblast noncancerous cell line (MRC-5).
# [2] = test system: human lung fibroblast noncancerous cell line (MRC-5); assay: MTT cytotoxicity assay against normal cells (MRC-5); assay type: cell-based; conditions: normal human lung fibroblasts
# Experimental: as §2, §4
melting point [°C],Compound,IC50 (A-549 cell line; 48 h) [nM],IC50 (MDA-MB-231 cell line; 48 h) [nM],"IC50 (A-549 cell line; Homo sapiens, A549, 48 h) [nM]","IC50 (MDA-MB-231 cell line; Homo sapiens, MDA-MB-231, 48 h) [nM]",CC50 at 48 h [1] [nM],CC50 [2] [nM]
–,"N.N.[Cl][Pt][Cl] [Cisplatin, reference compound]",24.4,12,–,–,–,–
–,"N#Cc1c(-c2ccc(N(c3ccccc3)c3ccccc3)cc2)c(C#N)c(=O)n(-c2ccccc2)c1N [4a, 6-Amino-4-(4-(diphenylamino)phenyl)-2-oxo-1-phenyl-1,2-dihydropyridine-3,5-dicarbonitrile]",–,–,46.9,55,137,–
–,"Cc1ccc(NC(=O)C(C#N)=c2sc(=O)c(=Cc3ccc(N(c4ccccc4)c4ccccc4)cc3)n2-c2ccccc2)cc1 [6c, 2-Cyano-2-(4-(4-(diphenylamino)benzylidene)-5-oxo-3-phenylthiazolidin-2-ylidene)-N-(p-tolyl)acetamide]",–,–,48.5,51,143,–
–,"CN(C)c1ccc(-n2c(N)c(C#N)c(-c3ccc(N(c4ccccc4)c4ccccc4)cc3)c(C#N)c2=O)cc1 [4d, 6-Amino-1-(4-(dimethylamino)phenyl)-4-(4-(diphenylamino)phenyl)-2-oxo-1,2-dihydropyridine-3,5-dicarbonitrile]",–,–,233,–,1100,–
–,"N#Cc1c(-c2ccc(N(c3ccccc3)c3ccccc3)cc2)c(C#N)c(=O)n(-c2ccc([N+](=O)[O-])cc2)c1N [4e, 6-Amino-4-(4-(diphenylamino)phenyl)-1-(4-nitrophenyl)-2-oxo-1,2-dihydropyridine-3,5-dicarbonitrile]",–,–,9.5,14.7,82.3,–
182 to 184,"CC1=NN(c2ccccc2)C(=O)C1=Cc1ccc(N(c2ccccc2)c2ccccc2)cc1 [compound 9, 4-(4-(Diphenylamino)benzylidene)-5-methyl-2-phenyl-2,4-dihydro-3H-pyrazol-3-one]",–,–,127,268,1300,–
–,"COc1ccc(NC(=O)C(C#N)=c2sc(=O)c(=Cc3ccc(N(c4ccccc4)c4ccccc4)cc3)n2-c2ccccc2)cc1 [6d, 2-Cyano-2-(4-(4-(diphenylamino)benzylidene)-5-oxo-3-phenylthiazolidin-2-ylidene)-N-(4-methoxyphenyl)acetamide]",–,–,95.4,139,683,–
–,"Cc1ccc(-n2c(N)c(C#N)c(-c3ccc(N(c4ccccc4)c4ccccc4)cc3)c(C#N)c2=O)cc1 [4b, 6-Amino-4-(4-(diphenylamino)phenyl)-2-oxo-1-(p-tolyl)-1,2-dihydropyridine-3,5-dicarbonitrile]",–,–,8.03,10.3,97.1,–
–,"6-Amino-1-(p-anisyl)-4-(4-(diphenylamino)phenyl)-2-oxo-1,2-dihydropyridine-3,5-dicarbonitrile [4c]",154,193,–,–,–,864
218 to 220,"O=C1ON=C(c2ccccc2)C1=Cc1ccc(N(c2ccccc2)c2ccccc2)cc1 [compound 10, 4-(4-(Diphenylamino)benzylidene)-3-phenylisoxazol-5(4H)-one]",–,–,128,111,973,–
–,"CCN(CC)c1ccc(NC(=O)C(C#N)=c2sc(=O)c(=Cc3ccc(N(c4ccccc4)c4ccccc4)cc3)n2-c2ccccc2)cc1 [6a, 2-Cyano-N-(4-(diethylamino)phenyl)-2-(4-(4-(diphenylamino)benzylidene)-5-oxo-3-phenylthiazolidin-2-ylidene)acetamide]",–,–,141,172,985,–
250 to 252,"CCOC(=O)C=c1sc(=Cc2ccc(N(c3ccccc3)c3ccccc3)cc2)c(=O)n1-c1ccccc1 [compound 8, ethyl-2-(5-(4-(diphenylamino)benzylidene)-4-oxo-3-phenylthiazolidin-2-ylidene)acetate]",–,–,219,136,1100,–
–,"CN(C)c1ccc(NC(=O)C(C#N)=c2sc(=O)c(=Cc3ccc(N(c4ccccc4)c4ccccc4)cc3)n2-c2ccccc2)cc1 [6b, 2-Cyano-N-(4-(dimethylamino)phenyl)-2-(4-(4-(diphenylamino)benzylidene)-5-oxo-3-phenylthiazolidin-2-ylidene)acetamide]",–,–,79.2,123,768,–
